Experimental data taken from patent US5948814A, “Genistein for the treatment of cystic fibrosis” (priority 1998, dated 1999).
Where “and” joins values, the source holds several entries; their conditions need not be identical. Identical values can stand only once. Like-named read-outs stand apart in the source and are kept apart here.

Key:
wt-CFTR [1] = molecular target: T1, wt-CFTR (Homo sapiens, UniProt P13569)
Procedure: FIGS. 3A and B show recordings of the potentiation of wild-type (wt) and ΔF508-CFTR channel activity by genistein. […]
Cell culture: NIH/3T3-CFTR, NIH/3T3-ΔF508, and NIH/3T3 mock cells (generous gifts from Dr. Richard Mulligan of Children's Hospital and Medical Center, Harvard Medical School) were grown as described [Bradbury et al., 1992] at 37° C. and 5% CO2 in Dulbecco's modified Eagle's medium-H21 supplemented with 10% new-born calf serum, 4 mM glutamine, 25 mM glucose, 100 μg/ml penicillin, 100 μg/ml streptomycin, and 50 μg/ml gentamicin. Cells were maintained in T75 flasks, passaged at 90-95% confluency, and split one to four. For measurements of I^- efflux and in vivo phosphorylation, cells were seeded onto 35-mm dishes at […]. For patch-clamp experiments, cells were grown on coverglass chips in 35-mm culture dishes. Media were replaced 24 hours after plating and thereafter every 48 hours. In all cases, media were changed on the day before I^- efflux studies, NIH/3T3-ΔF508 cells were transferred to 27° C. three days before use, and 1 day prior to study, media were supplemented with 5 mM butyrate. For patch-clamp studies, where a constant level of functional ΔF508-CFTR was not essential, NIH/3T3-ΔF508 cells were cultured at 27° C. for 2-6 days before use. Calu-3 cells were grown and maintained as described by Hunter [1995].
(§1) Electrophysiology: CFTR channel currents were recorded at room temperature (~22° C.) with a patch-clamp amplifier (EPC-9, Heka Electronic), filtered at 100 Hz with a built-in three-pole Bessel filter, and stored on videotapes. Data were subsequently refiltered at 25 Hz with an eight-pole Bessel filter (Frequency Device, Havervill, Mass.) and captured onto a hard disk at a sampling rate of 50 Hz. […] Patch-clamp electrodes were made from Corning 7052 glass capillaries (Warner Instrument, Hammed, Conn.). The pipette resistance was usually 3-5 M.OMEGA., and the seal resistance was >20 G.OMEGA.. The pipette solution contained (in mM) 140 N-methyl-D-glucamine chloride (NMDG-C1), 2 MgCl2, 5Ca Cl2, and 10 HEPES (pH 7.4 with NMDG). The superfusion solution contained (in mM) 150 […], 2 MgCl2, 1 EGTA, 5 glucose, and 5 HEPES (pH 7.4 with NaOH). In excised inside-out patch experiments, the bath solution contained (in mM) 130 MNDG-Cl, 10 EGTA, 10 HEPES, 20 tetraethylammonium chloride, 8 Tris, and 2 MgCl2 (pH 7.4 with NMDG). Pipette potential was held at 50 mV relative to the bath. Downward deflections represent channel opening.
(§2) Statistics: Mean currents and variance were estimated with Igor (Wavemetrics, Lake Oswego, Oreg.). Parameters for mean current-variance relationships and dose-response curves were obtained from least-square fitting with Sigmaplot (Jandel, San Rafael, Calif.). Po was calculated from patches containing a single channel by dividing the open channel current amplitude with the mean-current amplitude.

wt-CFTR [2] = molecular target: T1, wt-CFTR; settings: for TC1 (short mean closed time) / TC2 (long mean closed time) / TO1 (mean open time) / TO2 (long mean open time): Table 1
Procedure: (A): continuous recordings, 4 minutes in length, of a cell-attached patch of wt-CFTR in the presence of 10 μM forskolin or 10 μM forskolin+50 μM genistein are shown. […] (B): dwell-time analysis of (A).
A continuous recording, 12 minutes in length, of cell-attached patch is shown. wt-CFTR was activated with 50 μM forskolin prior to start of trace and was present throughout recording Genistein (50 μM) was present as indicated.
as §1
as §2, with “[…]. Dwell-time analysis was described previously [Baukrowitz et al., 1994]. Calculated values are presented as means±SE. Comparisons among data were made using the Student's t-test with P<0.05 considered significant.” for “amplitude.”
To determine how genistein increases Po, the effects of genistein on single-channel kinetics were examined in cell-attached patches using dwell-time analysis. […] Both traces were recorded in the presence of 10 μM forskolin; 50 μM genistein was added prior to the start of the lower trace.

ΔF508-CFTR = ΔF508-CFTR (Homo sapiens, UniProt P13569, DEL508-508); assay: Single-channel kinetics (dwell-time analysis), cell-attached patches; format: cell-based; design: expressed in transfected cells; host or cells: NIH/3T3 cells, stably transfected (NIH/3T3-ΔF508, gift of Dr. Richard Mulligan)
Chain of ΔF508-CFTR (P13569 with tags, fused parts or gaps DEL508-508): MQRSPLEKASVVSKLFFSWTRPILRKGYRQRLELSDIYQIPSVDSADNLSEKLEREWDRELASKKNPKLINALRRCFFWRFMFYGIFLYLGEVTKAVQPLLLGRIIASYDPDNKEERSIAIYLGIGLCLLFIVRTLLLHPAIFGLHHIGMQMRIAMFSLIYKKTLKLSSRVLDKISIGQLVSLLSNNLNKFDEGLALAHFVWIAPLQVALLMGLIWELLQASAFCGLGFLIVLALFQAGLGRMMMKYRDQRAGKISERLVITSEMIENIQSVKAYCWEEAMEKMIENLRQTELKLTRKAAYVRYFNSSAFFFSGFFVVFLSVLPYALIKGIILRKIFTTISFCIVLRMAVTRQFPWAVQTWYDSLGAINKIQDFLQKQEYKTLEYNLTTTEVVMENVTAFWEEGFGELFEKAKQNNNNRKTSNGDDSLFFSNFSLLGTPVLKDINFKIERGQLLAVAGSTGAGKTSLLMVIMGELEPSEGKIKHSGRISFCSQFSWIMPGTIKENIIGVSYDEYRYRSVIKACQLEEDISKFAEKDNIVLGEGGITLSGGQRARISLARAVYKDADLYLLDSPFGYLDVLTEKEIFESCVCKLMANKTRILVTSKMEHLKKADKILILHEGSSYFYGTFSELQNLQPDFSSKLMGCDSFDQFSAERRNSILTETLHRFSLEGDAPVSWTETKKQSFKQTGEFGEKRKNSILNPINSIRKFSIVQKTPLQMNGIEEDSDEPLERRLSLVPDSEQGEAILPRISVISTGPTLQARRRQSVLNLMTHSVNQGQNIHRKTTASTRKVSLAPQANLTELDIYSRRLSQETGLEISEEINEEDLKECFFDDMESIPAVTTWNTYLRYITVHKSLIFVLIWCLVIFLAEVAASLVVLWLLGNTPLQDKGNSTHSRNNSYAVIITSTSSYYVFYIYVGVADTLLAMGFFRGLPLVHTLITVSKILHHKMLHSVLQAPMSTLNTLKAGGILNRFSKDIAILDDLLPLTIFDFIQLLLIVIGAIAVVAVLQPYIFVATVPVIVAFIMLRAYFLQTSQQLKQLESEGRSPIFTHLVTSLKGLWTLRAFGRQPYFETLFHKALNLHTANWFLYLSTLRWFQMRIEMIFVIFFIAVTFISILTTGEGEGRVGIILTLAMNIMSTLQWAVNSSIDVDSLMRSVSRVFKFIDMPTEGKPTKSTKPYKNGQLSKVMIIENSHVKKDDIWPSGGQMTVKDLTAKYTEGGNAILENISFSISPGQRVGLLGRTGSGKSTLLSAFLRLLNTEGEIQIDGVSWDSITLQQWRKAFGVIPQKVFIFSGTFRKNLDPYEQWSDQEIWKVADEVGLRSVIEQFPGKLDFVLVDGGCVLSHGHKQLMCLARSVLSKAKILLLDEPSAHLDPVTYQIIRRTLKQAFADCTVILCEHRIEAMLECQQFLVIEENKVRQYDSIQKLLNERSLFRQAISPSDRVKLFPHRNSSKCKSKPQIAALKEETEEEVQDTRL
Procedure: FIGS. 3A and B show recordings of the potentiation of wild-type (wt) and ΔF508-CFTR channel activity by genistein. Channels in cell-attached patches from NIH/3T3-CFTR (FIG. 3A) and NIH/3T3-ΔF508cells (FIG. 3B), were stimulated as indicated with 10 μM forskolin and 50μ genestein.
as §1
as §2, with “[…]. Dwell-time analysis was described previously [Baukrowitz et al., 1994]. Calculated values are presented as means±SE. Comparisons among data were made using the Student's t-test with P<0.05 considered significant.” for “amplitude.”
To determine how genistein increases Po, the effects of genistein on single-channel kinetics were examined in cell-attached patches using dwell-time analysis. […] Both traces were recorded in the presence of 10 μM forskolin; 50 μM genistein was added prior to the start of the lower trace. […] The mean open times for ΔF508-CFTR were also determined. However, since cell-attached patches containing a single ΔF508-CFTR channel were not observed, a direct assessment of the closed times for ΔF508-CFTR cannot be made. Dwell-time analysis of pooled open times were performed on 14 patches where individual openings of ΔF508-CFTR could be clearly identified.
Table 1. Values are means±SE.

[3] = 50 nM forskolin and 60 μM genistein (so in the source)
[4] = 10 μM forskolin + 50 μM genistein
[5] = Table 1, 10 μM forskolin + 50 μM genistein
[6] = 50 nM forskolin, single exponential fit

T1 sequence (P13569 whole entry): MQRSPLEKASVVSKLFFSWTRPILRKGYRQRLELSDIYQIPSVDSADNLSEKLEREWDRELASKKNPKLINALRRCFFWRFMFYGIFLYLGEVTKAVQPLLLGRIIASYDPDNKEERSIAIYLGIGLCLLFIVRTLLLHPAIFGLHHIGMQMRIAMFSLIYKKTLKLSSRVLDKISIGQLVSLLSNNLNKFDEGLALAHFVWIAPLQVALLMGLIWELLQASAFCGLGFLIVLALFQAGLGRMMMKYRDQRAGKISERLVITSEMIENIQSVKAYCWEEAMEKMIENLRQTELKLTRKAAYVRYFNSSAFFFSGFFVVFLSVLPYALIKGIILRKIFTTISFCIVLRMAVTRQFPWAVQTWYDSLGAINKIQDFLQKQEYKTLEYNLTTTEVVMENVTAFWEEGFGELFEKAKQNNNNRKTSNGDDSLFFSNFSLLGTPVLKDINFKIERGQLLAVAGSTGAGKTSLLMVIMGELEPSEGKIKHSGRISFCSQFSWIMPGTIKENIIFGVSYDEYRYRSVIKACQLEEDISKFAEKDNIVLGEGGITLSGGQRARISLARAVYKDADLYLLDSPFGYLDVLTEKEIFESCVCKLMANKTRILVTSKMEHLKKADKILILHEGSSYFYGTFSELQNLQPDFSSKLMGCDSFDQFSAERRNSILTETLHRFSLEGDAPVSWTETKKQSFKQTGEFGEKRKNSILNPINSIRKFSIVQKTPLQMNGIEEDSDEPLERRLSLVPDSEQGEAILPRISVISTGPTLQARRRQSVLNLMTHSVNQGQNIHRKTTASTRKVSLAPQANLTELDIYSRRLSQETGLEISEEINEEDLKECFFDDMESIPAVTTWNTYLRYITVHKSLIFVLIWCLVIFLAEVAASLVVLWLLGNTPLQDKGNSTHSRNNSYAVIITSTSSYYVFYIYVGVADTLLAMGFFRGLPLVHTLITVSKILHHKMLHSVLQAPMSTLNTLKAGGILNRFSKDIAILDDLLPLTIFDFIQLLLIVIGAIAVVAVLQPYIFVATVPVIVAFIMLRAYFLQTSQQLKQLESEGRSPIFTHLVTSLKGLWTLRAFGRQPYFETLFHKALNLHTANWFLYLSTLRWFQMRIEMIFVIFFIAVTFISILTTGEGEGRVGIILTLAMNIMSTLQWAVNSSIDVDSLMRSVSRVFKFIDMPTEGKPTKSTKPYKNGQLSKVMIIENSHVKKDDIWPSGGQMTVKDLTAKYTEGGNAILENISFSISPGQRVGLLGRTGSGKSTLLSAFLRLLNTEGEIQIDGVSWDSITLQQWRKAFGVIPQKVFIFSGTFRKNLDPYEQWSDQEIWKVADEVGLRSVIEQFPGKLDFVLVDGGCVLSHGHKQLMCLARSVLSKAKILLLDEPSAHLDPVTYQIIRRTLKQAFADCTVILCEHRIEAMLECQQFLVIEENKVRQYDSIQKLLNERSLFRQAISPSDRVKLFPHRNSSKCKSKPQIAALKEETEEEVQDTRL

Q: For `O=c1c(-c2ccc(O)cc2)coc2cc(O)cc(O)c12` [Genistein, 4',5,7-trihydroxyisoflavone], which macroscopic current (wt-CFTR [1]; 5 μM genistein with 50 nM forskolin) is on record?
A: ~ 7.5 pA

Q: What about the “average increase in mean-current amplitude by genistein” value (wt-CFTR [1]; 50 μM genistein on 10 μM forskolin, NIH/3T3-CFTR, 50 µM) of the same compound?
A: 3.9±0.4 fold and 3.3±0.4 fold

Q: What about the “increase of forskolin-dependent wt-CFTR activity by genistein” value (wt-CFTR [1]; 50 μM genistein, NIH/3T3-CFTR cells incubated at 27° C. for 2-6 days, n=13) of the same compound?
A: 3.1±0.3 fold

Q: And the “increase of wt-CFTR current by genistein” value (wt-CFTR [1]; multichannel patches, 50 nM forskolin, n=6)?
A: 21±6 fold

Q: What about the “increase in Po by genistein” value (wt-CFTR [2]; 50 nM forskolin) of the same compound?
A: > 10 fold

Q: What about the mean closed time (wt-CFTR [2]; [3]) of the same compound?
A: ~ 2.5 seconds

Q: And the mean open time (wt-CFTR [2]; [3])?
A: ~ 3.0 seconds

Q: What about the “open probability Po” value (wt-CFTR [2]; 50 nM forskolin plus 50 μM genistein) of the same compound?
A: 0.79

Q: And the “open probability Po” value (wt-CFTR [2]; 10 μM forskolin plus 50 μM genistein, four channels)?
A: 0.71±0.06

Q: And the “TC1 (short mean closed time)” value (wt-CFTR [2]; [4])?
A: 0.49 ± 0.08

Q: And the “TC2 (long mean closed time)” value (wt-CFTR [2]; [4])?
A: 3.76 ± 1.09

Q: What about the “TO1 (mean open time)” value (wt-CFTR [2]; [4]) of the same compound?
A: 0.28 ± 0.11

Q: And the “TO2 (long mean open time)” value (wt-CFTR [2]; 10 μM forskolin + 50 μM genistein, significant, <0.05)?
A: 2.10 ± 0.30

Q: What about the “effect on long closed time” value (wt-CFTR [2]; wt-CFTR, FIG. 7) of the same compound?
A: dramatically decreases the long closed time

Q: What about the “increase of TO2 of forskolin-activated ΔF508-CFTR current by genistein” value (ΔF508-CFTR; 10 μM forskolin) of the same compound?
A: two-to threefold

Q: What about the “TO1 (mean open time)” value (ΔF508-CFTR; [5]) of the same compound?
A: 0.31 ± 0.17

Q: What about the “TO2 (long mean open time)” value (ΔF508-CFTR; [5]) of the same compound?
A: 2.63 ± 0.37

Q: For `C=C[C@@]1(C)CC(=O)[C@]2(O)[C@@]3(C)[C@@H](O)CCC(C)(C)[C@@H]3[C@H](O)[C@H](OC(C)=O)[C@@]2(C)O1` [forskolin], which “single-channel current steps observed” value (wt-CFTR [1]; 50 nM forskolin) is on record?
A: ≤ 4

Q: What about the TC2 (wt-CFTR [2]; 50 nM forskolin) of the same compound?
A: ~ 22 seconds

Q: And the “open probability Po” value (wt-CFTR [2]; 50 nM forskolin)?
A: 0.07

Q: What about the mean closed time (wt-CFTR [2]; [6]) of the same compound?
A: ~ 22 seconds

Q: What about the mean open time (wt-CFTR [2]; [6]) of the same compound?
A: ~ 0.9 seconds

Q: What about the TC2 (wt-CFTR [2]; 10 μM forskolin) of the same compound?
A: ~ 3 seconds

Q: What about the “open probability Po” value (wt-CFTR [2]; 10 μM forskolin, four channels) of the same compound?
A: 0.27±0.03

Q: What about the “TC1 (short mean closed time)” value (wt-CFTR [2]; 10 μM forskolin) of the same compound?
A: 0.39 ± 0.11

Q: And the “TC2 (long mean closed time)” value (wt-CFTR [2]; 10 μM forskolin)?
A: 2.98 ± 0.81

Q: And the “TO1 (mean open time)” value (wt-CFTR [2]; 10 μM forskolin)?
A: 0.24 ± 0.01

Q: What about the “TO2 (long mean open time)” value (wt-CFTR [2]; 10 μM forskolin) of the same compound?
A: 0.88 ± 0.09

Q: And the “increase of long closed time on reducing forskolin” value (wt-CFTR [2]; forskolin reduced from 10 μM to 50 nM)?
A: ~ 10 fold

Q: What about the “average long closing time” value (ΔF508-CFTR; 10 μM forskolin alone, at least 5 channels in patch) of the same compound?
A: 6.1 s

Q: What about the “TO2 (so in the source), estimated” value (ΔF508-CFTR; 10 μM forskolin, from observed closed time and minimal number of channels) of the same compound?
A: about 30 seconds

Q: What about the “TO1 (mean open time)” value (ΔF508-CFTR; Table 1, 10 μM forskolin) of the same compound?
A: 0.30 ± 0.11

Q: And the “TO2 (long mean open time)” value (ΔF508-CFTR; Table 1, 10 μM forskolin)?
A: 0.92 ± 0.12

Q: What about the “TC2 (long mean closed time), estimation” value (ΔF508-CFTR; Table 1, 10 μM forskolin, estimated from observed closed time and minimum number of channels) of the same compound?
A: > 30
